Patent US11731927B2, “Cocrystals of ubiquinol and compositions comprising them” (Center for Intelligent Research in Crystal Engineering, S.L., priority 2018, dated 2023)

Key:
[1] = Stability study, comparative ubiquinol vs cocrystals: storage in a chamber, periodic analysis for ubiquinone and the form detected; format: physicochemical; conditions: for stability at 25° C. measured by controlling the moment when ubiquinone was detected: "<" ubiquinone detected at least after the indicated days, ">" ubiquinone not detected yet
Experimental: Powder X-Ray diffraction (PXRD) analyses were performed by sandwiching the powder samples between polyester films of 10 micrometres of thickness or polyamide (kapton) films of 15 micrometres of thickness and analysed in a PANalytical X′Pert PRO MPD q/q powder diffractometer of 240 millimetres of radius, in a configuration of convergent beam with a focalizing mirror and a flat sample transmission geometry, in the following experimental conditions: Cu Kα radiation (λ=1.5406 Å); Work power: 45 kV and 40 mA; Incident beam slits defining a beam height of 0.4 millimetres; Incident and diffracted beam 0.02 radians Soller slits; PIXcel detector: Active length=3.347°; 2θ/θ scans from 2 to 40° 2θ with a step size of 0.026° 2θ and a measuring time of 76 seconds per step.
The stability of the different forms has been studied under two experimental conditions. The samples were stored under both conditions inside a Series FD Binder chamber and they were analyzed periodically: • condition A: 25° C. and 57% of relative humidity; • condition B: 40° C. and 75% of relative humidity.
A saturated solution of sodium bromide salt (57% RH) and a saturated solution of sodium chloride (75% RH) were used to control relative humidity.
75% HR by indicating the form detected after the mentioned days. No ubiquinone was detected at least after 14 days.

[2] = as above; format: physicochemical; conditions: relative humidity not controlled, "<" ubiquinone detected at least after the indicated days, ">" ubiquinone not detected yet
[3] = 25° C.-57% HR, 435 days, ^1: low crystallinity
[4] = 40° C.-75% HR, 14 days, "—^1" (footnote *): the sample absorbed moisture showing a liquid texture
[5] = 40° C.-75% HR, 51 days, ^1: low crystallinity

Row | Compound | stability at 25° C. measured by controlling the moment when ubiquinone was detected [2] | form detected ([1]; 25° C.-57% HR, 7 days) | form detected ([1]; 25° C.-57% HR, 14 days) | form detected ([1]; 25° C.-57% HR, 51 days) | form detected ([1]; 25° C.-57% HR, 119 days) | form detected [1, 3] | form detected ([1]; 25° C.-57% HR, time 0) | stability at 25° C. measured by controlling the moment when ubiquinone was detected ([1]; 25° C.-57% HR) | form detected ([1]; 40° C.-75% HR, 7 days) | form detected [1, 4] | form detected [1, 5] | form detected ([1]; 40° C.-75% HR, time 0) | also measured
1 | COc1c(O)c(C)c(CC=C(C)CCC=C(C)CCC=C(C)CCC=C(C)CCC=C(C)CCC=C(C)CCC=C(C)CCC=C(C)CCC=C(C)CCC=C(C)C)c(O)c1OC.O=C(O)c1cc(O)cc(O)c1 [P58-V, Cocrystal of Ubiquinol and 3,5-dihydroxybenzoic Acid] |  |  |  |  |  |  |  |  |  |  |  |  | stability ([1]; compared with cocrystal P58-III): expected to be similar to cocrystal P58-III
2 | COc1c(O)c(C)c(CC=C(C)CCC=C(C)CCC=C(C)CCC=C(C)CCC=C(C)CCC=C(C)CCC=C(C)CCC=C(C)CCC=C(C)CCC=C(C)C)c(O)c1OC.O=C(O)c1cccc(O)c1 [P58-VI, Cocrystal of Ubiquinol and 3-Hydroxybenzoic Acid] | >64 days | P58-VI | P58-VI | P58-VI | P58-VI | P58-VI^1 | P58-VI | >434 days | P58-VI | P58-VI | Ubiquinone^1 | P58-VI | form detected ([1]; 25° C.-57% HR, 288 days): P58-VI
3 | Cocrystal Hydrate of Ubiquinol and 3,4-dihydroxybenzoic Acid [P58-III] |  | P58-III | P58-III | P58-III | P58-III | P58-III | P58-III |  | P58-III | P58-III | P58-III | P58-III | form detected ([1]; 25° C.-57% HR, 84 days): P58-III; form detected ([1]; 25° C.-57% HR, 235 days): P58-III; form detected ([1]; 25° C.-57% HR, 405 days): P58-III; form detected ([1]; 25° C.-57% HR, 551 days, ^1: low crystallinity): P58-III^1; form detected ([1]; 40° C.-75% HR, 235 days): Ubiquinone
4 | Ubiquinol [reference compound] | <50 days | Form A | mixture Form A and Form B |  |  |  | Form A | <26 days | Form B |  |  | Form A | form detected ([1]; 25° C.-57% HR, 26 days): mixture Form B and Ubiquinone; form detected ([1]; 25° C.-57% HR, 37 days): mixture Form B and Ubiquinone; form detected ([1]; 25° C.-57% HR, 62 days, ^2: analyzed by 1H-NMR, confirms presence of Ubiquinone): mixture Form B and Ubiquinone^2; form detected ([1]; 25° C.-57% HR, 130 days): mixture Form B and Ubiquinone; form detected ([1]; 25° C.-57% HR, 300 days): mixture Form B and Ubiquinone; form detected ([1]; 25° C.-57% HR, 446 days): Ubiquinone (low crystallinity)
